Source: patent US4418075A, “Epoxysuccinyl amino acid derivatives” (Taisho Pharmaceutical Co., Ltd., priority 1979, dated 1983)

Tests used:
[1] = target: T1, CANP prepared from a muscle of hereditary muscular dystrophy chicken (Gallus gallus, UniProt P00789); experiment: CANP inhibitory activity (method of Ishiura et al.); type: biochemical; conditions: 50% inhibition as molar ratio to the enzyme
T1 construct: CANP prepared from a muscle of hereditary muscular dystrophy chicken; from tissue; host or cells: muscle of hereditary muscular dystrophy chicken
T1 sequence (P00789 1-705): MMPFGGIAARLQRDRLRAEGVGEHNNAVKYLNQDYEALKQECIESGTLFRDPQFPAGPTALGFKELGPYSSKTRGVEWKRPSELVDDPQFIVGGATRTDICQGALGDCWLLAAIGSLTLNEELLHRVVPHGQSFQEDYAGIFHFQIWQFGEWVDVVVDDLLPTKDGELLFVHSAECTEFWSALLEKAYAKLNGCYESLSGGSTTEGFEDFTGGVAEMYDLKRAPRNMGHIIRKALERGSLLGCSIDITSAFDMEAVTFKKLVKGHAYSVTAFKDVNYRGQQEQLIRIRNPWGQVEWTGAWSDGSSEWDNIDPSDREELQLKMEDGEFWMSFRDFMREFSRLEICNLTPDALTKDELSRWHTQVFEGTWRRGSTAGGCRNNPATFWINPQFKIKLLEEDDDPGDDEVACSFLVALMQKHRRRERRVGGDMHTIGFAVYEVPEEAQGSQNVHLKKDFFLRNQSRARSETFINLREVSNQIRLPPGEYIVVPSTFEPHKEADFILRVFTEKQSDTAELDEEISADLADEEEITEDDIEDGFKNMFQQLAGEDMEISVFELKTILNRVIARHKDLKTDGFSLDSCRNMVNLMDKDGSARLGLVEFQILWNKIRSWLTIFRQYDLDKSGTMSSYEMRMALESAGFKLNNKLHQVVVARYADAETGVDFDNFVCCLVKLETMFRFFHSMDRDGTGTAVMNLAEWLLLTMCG
Protocol: Their muscular dystrophy inhibitory activity was assayed by the method of Ishiura et al., [J. Biochem., 84, 225 (1978)] using CANP prepared from a muscle of hereditary muscular dystrophy chicken, and the resulting value for 50% inhibition in the molar ratios for the enzyme expressed as ID50 (mole/mole) is shown in Table 1 below.

[2] = Concentration in rat plasma after subcutaneous administration; type: in vivo; conditions: sc, rats, 50 mg/kg, an hour after administration
Protocol: The compounds of the present invention are better absorbed by the subcutaneous route in mammals such as rats or rabbits, as compared with the epoxysuccinic acid derivatives of the German Patent Laid Open Application described above and Chemical Abstracts, 87, 68129a (1977). To determine absorption, these compounds were administered subcutaneously to rats at a dose of 50 mg/kg, and the concentration of the test compound in rat plasma at an hour after the administration is shown in following Table 1.

papain = target: T2, papain (Carica papaya, UniProt P00784); experiment: Papain inhibitory activity (method of K. Hanada et al.); type: biochemical; conditions: amount of inhibitor for 50% inhibition; papain 80 μg/ml, Sigma, twice crystallized
T2 construct: purchased Sigma Chem. Co
T2 sequence (P00784 134-345): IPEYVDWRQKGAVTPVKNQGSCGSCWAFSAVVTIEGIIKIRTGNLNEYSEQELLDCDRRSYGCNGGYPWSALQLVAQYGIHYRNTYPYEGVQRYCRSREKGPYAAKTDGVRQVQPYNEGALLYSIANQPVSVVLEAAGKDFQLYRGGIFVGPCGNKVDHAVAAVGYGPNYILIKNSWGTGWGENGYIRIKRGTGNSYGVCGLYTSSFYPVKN
Protocol: Papain inhibitory activity of the compounds of the present invention was assayed by the method of K. Hanada et al [Argic. Biol. Chem., 42, (3)523(1978)] using papain (80 μg/ml, Sigma Chem. Co.) after twice crystallization.

[3] = in vivo
Protocol: The response was evaluated by the blueing spot at 15 minutes after the dye injection.

| Compound | CANP Inhibitory Activity ID50 (mole/mole) [1] | concentration at 1 h [2] | Papain inhibitory activity ID50 (papain) | Acceleration of vascular permeability, Relative effect (%) to E-64 [3] |
| --- | --- | --- | --- | --- |
| CC(C)C[C@H](NC(=O)[C@H]1O[C@@H]1C(=O)O)C(=O)NCCCCCCCN [Compound 1, N-[N-(L-3-trans-carboxyoxirane-2-carbonyl)-L-leucyl]-1,7-diaminoheptane] | 33 mole/mole | 15000 ng/mL | 0.103 µg | 2.8% |
| CC(C)C[C@H](NC(=O)C1OC1C(=O)O)C(=O)NCCCCCCCNC(=O)OCc1ccccc1 (mixture of isomers) [Compound 3, N-[N-(DL-3-trans-carboxyoxirane-2-carbonyl)-L-leucyl]-N'-benzyloxycarbonyl-1,7-diaminoheptane] | 20 mole/mole | 11000 ng/mL | 0.203 µg | 2.4% |
| CC(C)C[C@H](NC(=O)[C@H]1O[C@@H]1C(=O)O)C(=O)NCCCCN=C(N)N [Compound E-64, N-[N-(L-3-trans-carboxyoxirane-2-carbonyl)-L-leucyl]agmatine, reference compound] |  |  |  | 100.0% |
| CC(C)C[C@H](NC(=O)C1OC1C(=O)O)C(=O)NCCCCCN (mixture of isomers) [Compound 2, N-[N-(DL-3-trans-carboxyoxirane-2-carbonyl)-L-leucyl]-1,5-diaminopentane] | 54 mole/mole | 20000 ng/mL | 0.105 µg | 2.3% |
| CCOC(=O)C1OC1C(=O)N[C@@H](CC(C)C)C(=O)NCCCCNC(=O)OCc1ccccc1 (stereo partly drawn) [F, N--[N--(DL3-trans-ethoxycarbonyloxirane-2-carbonyl)-L-leucyl] N'--benzyloxycarbonyl1,4-diaminobutane, reference compound] | 480 mole/mole | < 1000 ng/mL |  |  |
